{
  "source": "patent US20200318195A1",
  "about": "“Bivalent Nucleic Acid Ligands and Uses Therefor” (Carnegie Mellon University, priority 2017, published 2020)",
  "key": {"[1]": {"system": "[WS+CS]", "experiment": "Steady-state fluorescent measurements of ligand with single strands", "format": "binding", "procedure": "(§1) FIG. 14. The effects of ligand orientation (LG2P), mismatched R11U and single-stranded targets (WS+CS). Inset: Fluorescent spectra of the corresponding samples after addition of 2.5 μM of pentamidine.\n(§2) To further corroborate the UV-Vis and CD findings, we measured the fluorescent signals of ligands with and without RNA targets following an excitation at 330 nm (λmax of E-base). We observed a significant fluorescent quenching of LG3 compared to that of LG1 and LG2. Such a drastic reduction in the fluorescent signals could be due to photo-induced electron transfer quenching, which is expected to be most efficient for LG3 since the fluorophore (E) is stacked between two other J-bases. […] With all three ligands, the emission signals were further reduced upon the addition of R11A, but most dramatically with LG2, 60% reduction with LG2 as compared to 35 and 33% with LG1 and LG3, respectively. […]\n(§3) The samples were prepared in 0.1× PBS buffer. […] All steady-state fluorescence samples were prepared by mixing ligands with RNA at the indicated concentrations in 0.1× PBS buffer, and annealed by incubation at 90° C. for 5 min followed by a gradual cooling to 37° C. […] Steady-state fluorescence data were collected at 25° C. by Cary Eclipse Fluorescence Spectrometer. […]"}, "[2]": {"system": "HP", "experiment": "Steady-state fluorescent measurements of ligand with HP", "format": "binding", "conditions": "excitation at 330 nm", "description": "as §2, with “respectively. We observed a similar fluorescent quenching pattern upon the incubation of LG2 with R11U, [WS+CS], HP, and LG2P with R11A (FIG. 14)—although less dramatic as compared to that of LG2 with R11A.” for “respectively.”\nas §3"}, "[3]": {"system": "single-stranded WS and CS", "experiment": "CD of ligand with single-stranded RNA targets", "format": "binding", "conditions": "0.1x PBS", "description": "(§4) FIG. 13. CD spectra of LG2 with the (A) mismatched R11U, (B) single-stranded WS and CS, and (C) double-stranded HP containing a single binding-site, as well as that of (D) LG2P with R11A. CD spectra of RNAs (line) and that of the [RNA+ligand] mixtures (dash).\n(§5) A series of model RNA targets were chosen for binding study (FIG. 11). The R11X series comprised 24 rCXG-repeats (FIG. 11 (A)), which, upon adopting a secondary hairpin structure, provided 11 binding sites for ligands (FIG. 11(B)). R11A contained the perfect-match (A-A), while R11U and R11C contained the respective U—U and C—C mismatches for ligand binding. R11G (X=G) was not ascertained since it has shown to be capable of forming G-quadruplex as well as hairpin structures, which could confound the interpretation of the experimental results. Single-stranded RNA targets, WS (Watson Strand) and CS (Crick Strand), with the LG2 binding-site underlined (FIG. 11 (C)), as well as double-stranded hairpin HP containing a single ligand binding-site (FIG. 11 (D)), were also examined. […]\nas §3"}, "[4]": {"system": "R11U", "experiment": "Steady-state fluorescent measurements of ligand with R11U", "format": "binding", "procedure": "as §1, §2, §3"}, "[5]": {"system": "double-stranded HP containing a single binding-site", "experiment": "CD of ligand with hairpin containing a single binding-site", "conditions": "0.1x PBS", "description": "as §4, §5, §3"}, "[6]": {"system": "R11U", "experiment": "CD of ligand with mismatched R11U", "format": "binding", "conditions": "0.1x PBS", "description": "as §4, §5, §3"}, "[7]": {"system": "R11A", "experiment": "Steady-state fluorescent measurements of ligand with R11A", "format": "binding", "conditions": "for fluorescent signals of ligand with R11A in presence of pentamidine: 2.5 uM of pentamidine; for reduction of emission signals upon the addition of R11A: 0.1x PBS", "procedure": "as §1\nTo further corroborate the UV-Vis and CD findings, we measured the fluorescent signals of ligands with and without RNA targets following an excitation at 330 nm (λmax of E-base). We observed a significant fluorescent quenching of LG3 compared to that of LG1 and LG2. Such a drastic reduction in the fluorescent signals could be due to photo-induced electron transfer quenching, which is expected to be most efficient for LG3 since the fluorophore (E) is stacked between two other J-bases. […] With all three ligands, the emission signals were further reduced upon the addition of R11A, but most dramatically with LG2, 60% reduction with LG2 as compared to 35 and 33% with LG1 and LG3, respectively. We observed a similar fluorescent quenching pattern upon the incubation of LG2 with R11U, [WS+CS], HP, and LG2P with R11A (FIG. 14)—although less dramatic as compared to that of LG2 with R11A. […] To test the hypothesis that the nonspecific binding of ligand to RNA can lead to fluorescent quenching, we incubated the respective RNA targets with pentamidine prior to adding LG2 and vice versa.\nThe samples were prepared in 0.1× PBS buffer. All spectra represent an average of at least fifteen scans collected at 100 nm/min rate between 200 and 375 nm, in a 1-cm path-length cuvette at 25° C. CD spectrum from buffer solution was subtracted from the sample spectra, which were then smoothed via a five-point adjacent averaging algorithm. Steady-State fluorescent measurements. All steady-state fluorescence samples were prepared by mixing ligands with RNA at the indicated concentrations in 0.1× PBS buffer, and annealed by incubation at 90° C. for 5 min followed by a gradual cooling to 37° C. The samples were incubated at 37° C. for 1 hr before the measurements. Steady-state fluorescence data were collected at 25° C. by Cary Eclipse Fluorescence Spectrometer. (εex=330 nm, εem=340-600 nm) with slit size."}, "[8]": {"system": "R11A", "experiment": "CD of ligand with perfect-match rCAG hairpin R11A", "format": "binding", "conditions": "0.1x PBS", "procedure": "FIG. 12. CD titration of LG2 with R11A. The concentration of R11A was 0.5 μM and those of LG2 were X: 0, 1.5, 2.5, 3.5, 4.5, 5.5, 6.5, 8.5, and 11.5 μM. After the addition of LG2 to R11A, the mixtures were incubated at 37° C. for 30 min prior to the acquisition of data at 25° C.\nas §4\nA series of model RNA targets were chosen for binding study (FIG. 11). The R11X series comprised 24 rCXG-repeats (FIG. 11 (A)), which, upon adopting a secondary hairpin structure, provided 11 binding sites for ligands (FIG. 11(B)). R11A contained the perfect-match (A-A), while R11U and R11C contained the respective U—U and C—C mismatches for ligand binding. […]\nas §3"}, "[9]": {"system": "R11C", "experiment": "CD of ligand with mismatched R11C", "format": "binding", "conditions": "0.1x PBS; data not shown", "description": "as §5, with “examined. The samples were prepared by incubating the pre-annealed RNAs with respective ligands in 0.1× PBS buffer (1 mM NaPi, 13.7 mM NaCl, 0.27 mM KCl; pH 7.4) at 37° C.” for “examined.”\nas §3"}, "[10]": {"system": "R11A", "experiment": "NMR titration of ligand with R11A", "format": "binding", "conditions": "R11A 0.1 mM, 0.1x PBS", "procedure": "FIG. 15. NMR titration of LG2 with R11A. The concentration of R11A was 0.1 mM. Aliquots of LG2 at the indicated molar ratios were added to R11A and incubated at 37° C. for 15 min prior to data acquisition. Solvent-exchangeable protons are indicated by dashed lines, and nonexchangeable protons by vertical solid lines.\nTo gain insight into the binding mode of LG2, we performed a series of multinuclear and multidimensional NMR experiments with LG2, R11A, and in combination. The samples were prepared in the same 0.1× PBS buffer as before, containing a 9:1 volume ratio of H2O:D2O The NOESY data were collected at 300, 200, and 100 ms mixing times to obtain proton-proton distance, while COSY experiments were performed to map the proton spin-system of each residue. The expectation was that H-bonding interactions between LG2 and R11A would result in line-broadening and downfield chemical shift of the imino proton signals of the canonical G-C/C-G pairs due to base-pair opening, and in an emergence of a new set of imino proton signals due to the formation of H-bonds between ligand and RNA. […] Variable-temperature measurements further supported this chemical shift assignment, showing a gradual decay in peak intensity with increasing temperature while that of the non-exchangeable protons remained fairly constant. Partial assignments of the nucleobase protons were made by NOESY experiments. […]"}},
  "data": [
    {"substance": "H-EFI-Lys-NH2 [LG2]", "values": [
      {"measurement": "fluorescent signals of ligand with [WS+CS] in presence of pentamidine", "setting": "[1]; 2.5 uM of pentamidine", "value": "fully recovered"},
      {"measurement": "fluorescent quenching with [WS+CS] compared to that of LG2 with R11A", "setting": "[1]; excitation at 330 nm", "value": "less dramatic"},
      {"measurement": "fluorescent quenching with HP compared to that of LG2 with R11A", "setting": "[2]", "value": "less dramatic"},
      {"measurement": "change in CD signals after incubation with single-stranded WS and CS", "setting": "[3]", "value": "no significant differences in the CD signals"},
      {"measurement": "fluorescent signals of ligand with R11U in presence of pentamidine", "setting": "[4]; 2.5 uM of pentamidine", "value": "fully recovered"},
      {"measurement": "fluorescent quenching with R11U compared to that of LG2 with R11A", "setting": "[4]; excitation at 330 nm", "value": "less dramatic"},
      {"measurement": "change in CD signals after incubation with HP", "setting": "[5]", "value": "no significant differences in the CD signals"},
      {"measurement": "change in CD signals after incubation with mismatched R11U", "setting": "[6]", "value": "no significant differences in the CD signals"},
      {"measurement": "fluorescent signals of ligand with R11A in presence of pentamidine", "setting": "[7]", "value": "remained suppressed"},
      {"measurement": "reduction of emission signals upon the addition of R11A", "setting": "[7]; excitation at 330 nm", "value": 60, "unit": "%"},
      {"measurement": "differential in CD amplitude with R11A, among the ligand series", "setting": "[8]; signals at ~270 nm", "value": "largest differential in CD amplitude"},
      {"measurement": "change in CD signals after incubation with mismatched R11C", "setting": "[9]", "value": "no significant differences in the CD signals"},
      {"measurement": "new imino proton signals in the 10-20 ppm regimes (H-bond formation between ligand and RNA)", "setting": "[10]", "value": "did not observe any new imino proton signals"},
      {"measurement": "imino proton signal of R11A upon the addition of ligand", "setting": "[10]; 9:1 H2O:D2O", "value": "gradually broadened and downfield-shifted"}
    ]},
    {"substance": "H-IPE-Lys-NH2 [LG2P]", "values": [
      {"measurement": "fluorescent signals of ligand with R11A in presence of pentamidine", "setting": "[7]", "value": "fully recovered"},
      {"measurement": "fluorescent quenching with R11A compared to that of LG2 with R11A", "setting": "[7]; excitation at 330 nm", "value": "less dramatic"},
      {"measurement": "change in CD signals after incubation with R11A", "setting": "[8]", "value": "no significant differences in the CD signals"}
    ]},
    {"substance": "H-FIE-Lys-NH2 [LG1]", "values": [
      {"measurement": "reduction of emission signals upon the addition of R11A", "setting": "[7]; excitation at 330 nm", "value": 35, "unit": "%"}
    ]},
    {"substance": "H-IEF-Lys-NH2 [LG3]", "values": [
      {"measurement": "reduction of emission signals upon the addition of R11A", "setting": "[7]; excitation at 330 nm", "value": 33, "unit": "%"}
    ]}
  ]
}
